Source: patent publication US20080249123A1, “WORTMANNIN-RAPAMYCIN CONJUGATE AND USES THEREOF” (Wyeth, priority 2007, published 2008)

How the values were obtained:
[1] = test system: HTB44 (A498); assay: In vitro cell culture growth assay (MTS), HTB44 (A498); format: cell-based, Human; settings: renal line, 3 days after drug treatment
Protocol: (§1) Human tumor cell lines (Table 3) include prostate lines LNCap and PC3MM2, breast lines MDA468, MCF7, renal line HTB44 (A498), colon line HCT116, and ovarian line OVCAR3. Cells were plated in 96-well culture plates.
(§2) One day following plating, the following conjugates (inhibitors) were added to cells: • Compound A 42,17′-linked wortmannin-adipate-rapamycin conjugate, diethylamine adduct • Compound B 42,17′-linked wortmannin-adipate-rapamycin conjugate. • Compound C 42,17′-linked wortmannin-succinate-rapamycin conjugate, N,N,N′-trimethyl 1,3-propanediamine adduct • Compound D 42,17′-linked wortmannin-adipate-rapamycin conjugate, diallylamine adduct • Compound E 42,17′-linked wortmannin-adipate-rapamycin conjugate, N,N,N′-trimethyl 1,3-propanediamine adduct • Compound F 42,17′-linked wortmannin-suberate-rapamycin conjugate, N,N,N′-trimethyl 1,3-propanediamine adduct.
(§3) Three days after drug treatment, viable cell densities were determined by metabolic conversion (by viable cells) of the MTS dye (3-(4,5-dimethylthiazol-2-yl)-5-(3 carboxymethoxyphenyl)-2-(4-sulfophenyl)-2H-tetrazolium, inner salt), a well established cell proliferation assay. The assays were performed using an assay kit purchased from Promega Corp. (Madison, Wis.) following the protocol supplied with the kit. The MTS assay results were read in a 96-well plate reader by measuring absorbance at 490 nm. The effect of each treatment was calculated as percent of control growth relative to the vehicle-treated cells grown in the same culture plate. The drug concentration that conferred 50% inhibition of growth was determined as IC50 (μg/mL). See, Table 3.

[2] = test system: OVCAR3; assay: In vitro cell culture growth assay (MTS), OVCAR3; format: cell-based, Human; settings: ovarian line, 3 days after drug treatment
Protocol: as §1, §2, §3

[3] = test system: MCF7; assay: In vitro cell culture growth assay (MTS), MCF7; format: cell-based, Human; settings: breast line, 3 days after drug treatment
Protocol: as §1, §2, §3

[4] = test system: MDA468; assay: In vitro cell culture growth assay (MTS), MDA468; format: cell-based, Human; settings: breast line, 3 days after drug treatment
Protocol: as §1, §2, §3

[5] = test system: PC3MM2; assay: In vitro cell culture growth assay (MTS), PC3MM2; format: cell-based, Human; settings: prostate line, 3 days after drug treatment
Protocol: as §1, §2, §3

[6] = test system: LNCap; assay: In vitro cell culture growth assay (MTS), LNCap; format: cell-based, Human; settings: prostate line, 3 days after drug treatment
Protocol: as §1, §2, §3

[7] = test system: HCT116; assay: In vitro cell culture growth assay (MTS), HCT116; format: cell-based, Human; settings: colon line, 3 days after drug treatment
Protocol: as §1, §2, §3

[8] = test system: U87MG Glioma Xenografts; assay: Xenograft tumor efficacy study, U87MG glioma in nude mice; format: in vivo; settings: for Tumor Volume mean, Day 14 / S/T (D14), Survival over total in group / t/c (Treated over control) tumor volume, Day 14: Day 14
Protocol: Female nude mice at 10 weeks of age were inoculated subcutaneously on the flank with 200 μL U87MG (human gliobastoma) tumor cell suspension. U87MG cells were suspended in full growth media and were implanted at 10 million cells per mouse. Mice were staged when tumors reached approximately 200 mm^3 in sizes. Tumor bearing mice at staging (day 0) were randomized into treatment groups (n=10). […]
The growth of tumors was monitored twice a week for the duration of the experiment. Tumor size was measured using sliding vernier calipers, and the tumor mass was calculated using the formula (length×Width^2)/2.
The experimental methods for drug preparation, dosing route, regimen, etc (listed in the Table 4) were similar to the experiments presented in the Figures. The data in Table 4 and the Figures were derived from multiple and completely different experiments. Within Table 4, the data contained separate experiments.

[9] = test system: PI3K; settings: cited from earlier work
[10] = test system: C3H mammary model; settings: cited from earlier work

Molecule	IC50 inhibition of tumor cell growth, HTB44 [1]	IC50 inhibition of tumor cell growth, OVCAR3 [2]	IC50 inhibition of tumor cell growth, MCF7 [3]	IC50 inhibition of tumor cell growth, MDA468 [4]	IC50 inhibition of tumor cell growth, PC2MM2 [5]	IC50 inhibition of tumor cell growth, LNCap [6]	IC50 inhibition of tumor cell growth, HCT116 [7]	Tumor Volume mean, Day 0 ([8]; 3 mg/kg IV on day 0 and day 7)	Tumor Volume mean, Day 3 ([8]; 3 mg/kg IV on day 0 and day 7)	Tumor Volume mean, Day 7 ([8]; 3 mg/kg IV on day 0 and day 7)	Tumor Volume mean, Day 10 ([8]; 3 mg/kg IV on day 0 and day 7)	Tumor Volume mean, Day 14 ([8]; 3 mg/kg IV on day 0 and day 7)	t/c (Treated over control) tumor volume, Day 0 ([8]; 3 mg/kg)	t/c (Treated over control) tumor volume, Day 3 ([8]; 3 mg/kg)	t/c (Treated over control) tumor volume, Day 7 ([8]; 3 mg/kg)	t/c (Treated over control) tumor volume, Day 10 ([8]; 3 mg/kg)	S/T (D14), Survival over total in group ([8]; 3 mg/kg)	t/c (Treated over control) tumor volume, Day 14 ([8]; 3 mg/kg)	Tumor Volume mean, Day 0 ([8]; 15 mg/kg IV on day 0 and day 7)	Tumor Volume mean, Day 3 ([8]; 15 mg/kg IV on day 0 and day 7)	other results
42,17′-linked wortmannin-adipate-rapamycin conjugate [Compound B]	3.50 µg/mL	4.70 µg/mL	1.00 µg/mL	2.05 µg/mL	1.10 µg/mL	0.80 µg/mL	16.50 µg/mL	–	–	–	–	–	–	–	–	–	–	–	–	–	–
42,17′-linked wortmannin-adipate-rapamycin conjugate, N,N,N′-trimethyl 1,3-propanediamine adduct [Compound E]	5.00 µg/mL	3.15 µg/mL	1.00 µg/mL	1.35 µg/mL	1.95 µg/mL	0.25 µg/mL	7.50 µg/mL	182.7 mm^3	214.7 mm^3	340.2 mm^3	471.6 mm^3	595.9 mm^3	0.99	0.78	0.68	0.45	10/10	0.27	187.5 mm^3	168.0 mm^3	Tumor Volume mean, Day 7 ([8]; 15 mg/kg IV on day 0 and day 7): 181.6 mm^3; Tumor Volume mean, Day 10 ([8]; 15 mg/kg IV on day 0 and day 7): 165.8 mm^3; Tumor Volume mean, Day 14 ([8]; 15 mg/kg IV on day 0 and day 7): 162.8 mm^3; t/c (Treated over control) tumor volume, Day 0 ([8]; 15 mg/kg): 1.01; t/c (Treated over control) tumor volume, Day 3 ([8]; 15 mg/kg): 0.61; t/c (Treated over control) tumor volume, Day 7 ([8]; 15 mg/kg): 0.36; t/c (Treated over control) tumor volume, Day 10 ([8]; 15 mg/kg): 0.16; S/T (D14), Survival over total in group ([8]; 15 mg/kg): 10/10; t/c (Treated over control) tumor volume, Day 14 ([8]; 15 mg/kg): 0.07; efficacy in multi-cycle treatment (FIG. 2) ([8]; multi-cycle treatment): sustained efficacy
42,17′-linked wortmannin-adipate-rapamycin conjugate, diallylamine adduct [Compound D]	4.10 µg/mL	1.75 µg/mL	0.66 µg/mL	1.15 µg/mL	0.43 µg/mL	0.21 µg/mL	5.00 µg/mL	185.1 mm^3	244.5 mm^3	435.4 mm^3	636.4 mm^3	1050.1 mm^3	1.00	0.89	0.87	0.60	10/10	0.47	181.5 mm^3	186.0 mm^3	Tumor Volume mean, Day 10 ([8]; 15 mg/kg IV on day 0 and day 7): 242.5 mm^3; Tumor Volume mean, Day 14 ([8]; 15 mg/kg IV on day 0 and day 7): 254.6 mm^3; t/c (Treated over control) tumor volume, Day 0 ([8]; 15 mg/kg): 0.98; t/c (Treated over control) tumor volume, Day 3 ([8]; 15 mg/kg): 0.68; t/c (Treated over control) tumor volume, Day 10 ([8]; 15 mg/kg): 0.23; S/T (D14), Survival over total in group ([8]; 15 mg/kg): 10/10; t/c (Treated over control) tumor volume, Day 14 ([8]; 15 mg/kg): 0.11
42,17′-linked wortmannin-adipate-rapamycin conjugate, diethylamine adduct [Compound A]	0.57 µg/mL	8.50 µg/mL	0.29 µg/mL	0.38 µg/mL	2.55 µg/mL	0.04 µg/mL	>30 µg/mL	–	–	–	–	–	–	–	–	–	–	–	–	–	–
42,17′-linked wortmannin-succinate-rapamycin conjugate, N,N,N′-trimethyl 1,3-propanediamine adduct [Compound C]	2.00 µg/mL	1.13 µg/mL	0.38 µg/mL	1.20 µg/mL	0.50 µg/mL	0.20 µg/mL	4.20 µg/mL	193.0 mm^3	209.6 mm^3	437.2 mm^3	691.8 mm^3	1091.7 mm^3	1.04	0.76	0.88	0.66	10/10	0.49	183.6 mm^3	193.5 mm^3	Tumor Volume mean, Day 7 ([8]; 15 mg/kg IV on day 0 and day 7): 246.7 mm^3; Tumor Volume mean, Day 10 ([8]; 15 mg/kg IV on day 0 and day 7): 294.2 mm^3; t/c (Treated over control) tumor volume, Day 0 ([8]; 15 mg/kg): 0.99; t/c (Treated over control) tumor volume, Day 3 ([8]; 15 mg/kg): 0.70; t/c (Treated over control) tumor volume, Day 7 ([8]; 15 mg/kg): 0.49; t/c (Treated over control) tumor volume, Day 10 ([8]; 15 mg/kg): 0.28; S/T (D14), Survival over total in group ([8]; 15 mg/kg): 10/10; t/c (Treated over control) tumor volume, Day 14 ([8]; 15 mg/kg): 0.11; antitumor activity (FIG. 2) ([8]; i.v. 1× weekly for 2 rounds at 1.5 mg/kg): improved inhibition of tumor cell growth; antitumor activity (FIG. 2) ([8]; i.v. 1× weekly for 2 rounds at 4.5 mg/kg): some improvement; antitumor activity (FIG. 2) ([8]; i.v. 1× weekly for 8 rounds at 15 mg/kg): Significant improvement
COCC1OC(=O)c2coc3c2C1(C)C1=C(C3=O)C2CCC(O)C2(C)CC1OC(C)=O (stereo not drawn) [17β-Hydroxywortmannin]	–	–	–	–	–	–	–	–	–	–	–	–	–	–	–	–	–	–	–	–	increase in activity relative to wortmannin ([9]; PI3K): 10 fold; IC50 [9]: 0.5 nM; anti-tumor activity in the C3H mammary model ([10]; dose of 0.5 mg/kg): no inhibition; toxicity in the C3H mammary model ([10]; dose of 1.0 mg/kg): toxicity
